Source: ChEMBL document CHEMBL5518212, “Structure-Based Design of Novel G-Protein-Coupled Receptor TAAR1 Agonists as Potential Antipsychotic Drug Candidates” (J Med Chem, 2024)
≈ marks a conversion by molar mass, not a printed value.

What was measured:
[1] = target: T1, Trace amine-associated receptor 1 (Homo sapiens, UniProt Q96RJ0); assay: Agonist activity at Gs-mediated TAAR1 activation (unknown origin) expressed in HEK293 cells pretreated with coelenterazine for 30 mins followed by compound addition by BRET assay; type: functional, cell-based
T1 sequence (Q96RJ0 whole entry): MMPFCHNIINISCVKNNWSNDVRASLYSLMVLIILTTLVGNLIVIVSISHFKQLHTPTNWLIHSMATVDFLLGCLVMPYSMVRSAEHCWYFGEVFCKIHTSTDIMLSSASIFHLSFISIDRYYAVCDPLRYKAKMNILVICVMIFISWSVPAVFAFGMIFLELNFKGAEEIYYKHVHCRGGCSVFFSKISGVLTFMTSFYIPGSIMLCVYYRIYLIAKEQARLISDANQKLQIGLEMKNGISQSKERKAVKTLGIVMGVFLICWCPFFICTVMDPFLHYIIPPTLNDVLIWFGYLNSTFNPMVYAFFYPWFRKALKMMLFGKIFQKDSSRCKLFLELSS

[2] = Toxicity in C57BL/6J mouse assessed as induction of catalepsy at 3 to 10 mg/kg, po measured at 30 to 60 mins; type: organism-based; details: in vivo, dose lower 3 mg/kg, time lower 30 min, dose upper 10 mg/kg, time upper 60 min
Mus musculus = species on record: Mus musculus; details: C57BL/6J, dose 0.3-3 mg/kg, route po, time 70.0 min
[3] = target: T1, Trace amine-associated receptor 1; assay: Agonist activity at Gq-mediated TAAR1 activation (unknown origin) expressed in HEK293 cells pretreated with coelenterazine for 30 mins followed by compound addition by BRET assay; type: functional, cell-based
[4] = Half-life in Sprague-Dawley rat at 2 mg/kg, iv measured upto 8 hrs by LC-MS/MS analysis; type: ADME, organism-based; details: in vivo
[5] = Half-life in Sprague-Dawley rat at 10 mg/kg, po measured upto 8 hrs by LC-MS/MS analysis; type: ADME, organism-based; details: in vivo
[6] = Tmax in Sprague-Dawley rat at 2 mg/kg, iv measured upto 8 hrs by LC-MS/MS analysis; type: ADME, organism-based; details: in vivo
[7] = Tmax in Sprague-Dawley rat at 10 mg/kg, po measured upto 8 hrs by LC-MS/MS analysis; type: ADME, organism-based; details: in vivo
[8] = Cmax in Sprague-Dawley rat at 2 mg/kg, iv measured upto 8 hrs by LC-MS/MS analysis; type: ADME, organism-based; details: in vivo
[9] = Cmax in Sprague-Dawley rat at 10 mg/kg, po measured upto 8 hrs by LC-MS/MS analysis; type: ADME, organism-based; details: in vivo
[10] = AUC(0 to t) in Sprague-Dawley rat at 2 mg/kg, iv measured upto 8 hrs by LC-MS/MS analysis; type: ADME, organism-based; details: in vivo
[11] = AUC(0 to t) in Sprague-Dawley rat at 10 mg/kg, po measured upto 8 hrs by LC-MS/MS analysis; type: ADME, organism-based; details: in vivo
[12] = AUC(0 to infinity) in Sprague-Dawley rat at 2 mg/kg, iv measured upto 8 hrs by LC-MS/MS analysis; type: ADME, organism-based; details: in vivo
[13] = AUC(0 to infinity) in Sprague-Dawley rat at 10 mg/kg, po measured upto 8 hrs by LC-MS/MS analysis; type: ADME, organism-based; details: in vivo
[14] = Clearance in Sprague-Dawley rat at 2 mg/kg, iv measured upto 8 hrs by LC-MS/MS analysis; type: ADME, organism-based; details: in vivo
[15] = Oral bioavailability in Sprague-Dawley rat at 10 mg/kg measured upto 8 hrs by LC-MS/MS analysis; type: ADME, organism-based; details: in vivo
[16] = Solubility of the compound at pH 2; type: physicochemical; details: buffer
[17] = Solubility of the compound at pH 7; type: physicochemical; details: buffer
[18] = Solubility of the compound at pH 7.4; type: physicochemical; details: buffer
[19] = Acute toxicity in Kunming mouse assessed as change in body weight at 500 mg/kg, po measured after 7 days; type: organism-based; details: in vivo, 168 h, time 7 day
[20] = Acute toxicity in Kunming mouse assessed as abnormal behavior at 50 mg/kg, po administered every 2 days for 14 days; type: organism-based; details: in vivo, 336 h, time 14 day
[21] = Acute toxicity in Kunming mouse assessed as change in body weight at 50 mg/kg, po administered every 2 days for 14 days; type: organism-based; details: in vivo, 336 h, time 14 day
[22] = Toxicity in Kunming mouse assessed as heart damage at 50 mg/kg, po administered every 2 days for 14 days by H and E staining based assay; type: organism-based; details: in vivo, 336 h, time 14 day
[23] = Toxicity in Kunming mouse assessed as liver damage at 50 mg/kg, po administered every 2 days for 14 days by H and E staining based assay; type: organism-based; details: in vivo, 336 h, time 14 day
[24] = Toxicity in Kunming mouse assessed as spleen damage at 50 mg/kg, po administered every 2 days for 14 days by H and E staining based assay; type: organism-based; details: in vivo, 336 h, time 14 day
[25] = Toxicity in Kunming mouse assessed as lung damage at 50 mg/kg, po administered every 2 days for 14 days by H and E staining based assay; type: organism-based; details: in vivo, 336 h, time 14 day
[26] = Toxicity in Kunming mouse assessed as kidney damage at 50 mg/kg, po administered every 2 days for 14 days by H and E staining based assay; type: organism-based; details: in vivo, 336 h, time 14 day
[27] = Toxicity in C57BL/6J mouse assessed as reduction in baseline locomotion at 3 mg/kg, po; type: organism-based; details: in vivo

In the case of `CN(C)Cc1ccc(-c2ccccc2)cc1`, the EC50 [1] is reported as 9.46 nM, the Activity [2] is reported as “Non-Toxic” and the inhibition (Mus musculus) is reported as “Dose-Dependent Effect”.
With `Nc1ccc(-c2cccc(F)c2)cc1` the EC50 [3] was 28.9 nM.
Compound `NCCc1ccc(-c2cccc(F)c2)cc1` has an EC50 [1] of 1.17 nM.
`Nc1ccc(-c2ccccc2)cc1` [BIPHENYL-4-AMINE] gave an EC50 [3] of 342 nM.
For `CN(C)Cc1ccc(-c2cccc(Cl)c2)cc1`, the Activity [2] was “Non-Toxic”.
Work on `NCc1ccc(-c2ccccc2)cc1` yielded an EC50 [1] of 301 nM.
`C[C@@H](N)C(=O)Nc1ccc(-c2ccco2)cc1.Cl` showed a half-life [4] of 1.23 h, a half-life [5] of 2.31 h and a Tmax [6] of 1.8 min. For the same compound, the Tmax [7] was 1.5 h, the Cmax [8] was 292 ng/mL and the Cmax [9] was 154 ng/mL. It also gave an AUC(0-t) at 8 h [10] of 323 ng·h/mL, an AUC(0-t) at 8 h [11] of 627 ng·h/mL and an AUC(0-inf) [12] of 327 ng·h/mL. For the same compound, the AUC(0-inf) [13] was 634 ng·h/mL, the clearance [14] was 104 mL/min/kg and the bioavailability [15] was 39%. For the same compound, the solubility [16] was 8640 µg/mL, the solubility [17] was 7500 µg/mL and the solubility [18] was 3110 µg/mL. The Activity [19] was “Non-Toxic”, the Activity [20] was “Non-Toxic” and the Activity [21] was “Non-Toxic”. The Activity [22] was “Non-Toxic”, the Activity [23] was “Non-Toxic” and the Activity [24] was “Non-Toxic”. The Activity [25] was “Non-Toxic” and the Activity [26] was “Non-Toxic”.
With `C[C@@H](N)C(=O)Nc1ccc(-c2ccco2)cc1` the Activity [2] was “Non-Toxic”, the Activity [27] was “Non-Toxic” and the solubility [16] was 390 µg/mL (≈ 1690 µM). The solubility [17] was 710 µg/mL (≈ 3080 µM) and the solubility [18] was 540 µg/mL (≈ 2350 µM).
`NCCc1ccc(Br)cc1` showed an EC50 [1] of 9.85 nM and an EC50 [3] of 66.5 nM.
